According to ChEMBL document CHEMBL3875145, “Highly potent anti-leishmanial derivatives of hederagenin, a triperpenoid from Sapindus saponaria L” (Eur J Med Chem, 2016):

System: Leishmania infantum
Assay: Antiparasitic activity against Leishmania infantum MHOM/BR/70/BH46 promastigotes infected in dog DH82 cells at 1000 uM after 48 hrs by ELISA method
Type: functional
Conditions: MHOM/BR/70/BH46, DH82, 48 h

Which inhibition at 1000 µM does the source give for Cc1cccc(COC(=O)[C@]23CCC(C)(C)C[C@H]2C2=CC[C@@H]4[C@@]5(C)CC[C@H](O)[C@@](C)(CO)[C@@H]5CC[C@@]4(C)[C@]2(C)CC3)c1 here?
The inhibition at 1000 µM was 66%.

Which inhibition at 1000 µM does the source give for CC1(C)CC[C@]2(C(=O)OCc3ccccc3Cl)CC[C@]3(C)C(=CC[C@@H]4[C@@]5(C)CC[C@H](O)[C@@](C)(CO)[C@@H]5CC[C@]43C)[C@@H]2C1 here?
Its inhibition at 1000 µM is 15.8%.

Which inhibition at 1000 µM does the source give for CC1(C)CC[C@]2(C(=O)OCc3ccc(Cl)cc3)CC[C@]3(C)C(=CC[C@@H]4[C@@]5(C)CC[C@H](O)[C@@](C)(CO)[C@@H]5CC[C@]43C)[C@@H]2C1 here?
Its inhibition at 1000 µM is 53%.

For CC1(C)CC[C@]2(C(=O)NCCN3CCCCC3)CC[C@]3(C)C(=CC[C@@H]4[C@@]5(C)CC[C@H](O)[C@@](C)(CO)[C@@H]5CC[C@]43C)[C@@H]2C1, which inhibition at 1000 µM is on record?
Its inhibition at 1000 µM is 0%.

How did the inhibition at 1000 µM turn out when CC1(C)CC[C@]2(C(=O)NCc3cn(Cc4ccccc4Br)nn3)CC[C@]3(C)C(=CC[C@@H]4[C@@]5(C)CC[C@H](O)[C@@](C)(CO)[C@@H]5CC[C@]43C)[C@@H]2C1 was run?
Its inhibition at 1000 µM is 4.2%.

With CC1(C)CC[C@]2(C(=O)OCc3c(F)cccc3F)CC[C@]3(C)C(=CC[C@@H]4[C@@]5(C)CC[C@H](O)[C@@](C)(CO)[C@@H]5CC[C@]43C)[C@@H]2C1 as the compound, how does the inhibition at 1000 µM read?
Its inhibition at 1000 µM is 25.2%.

For CC1(C)CC[C@]2(C(=O)OCc3ccc(F)cc3)CC[C@]3(C)C(=CC[C@@H]4[C@@]5(C)CC[C@H](O)[C@@](C)(CO)[C@@H]5CC[C@]43C)[C@@H]2C1, which inhibition at 1000 µM is on record?
Its inhibition at 1000 µM is 57%.

For CC1(C)CC[C@]2(C(=O)OCc3cn(Cc4c(F)cccc4F)nn3)CC[C@]3(C)C(=CC[C@@H]4[C@@]5(C)CC[C@H](O)[C@@](C)(CO)[C@@H]5CC[C@]43C)[C@@H]2C1, which inhibition at 1000 µM is on record?
The inhibition at 1000 µM was 34%.

For CC1(C)CC[C@]2(C(=O)OCc3cn(Cc4ccccc4Cl)nn3)CC[C@]3(C)C(=CC[C@@H]4[C@@]5(C)CC[C@H](O)[C@@](C)(CO)[C@@H]5CC[C@]43C)[C@@H]2C1, which inhibition at 1000 µM is on record?
Its inhibition at 1000 µM is 0%.

With COC(=O)C(NC(=O)[C@]12CCC(C)(C)C[C@H]1C1=CC[C@@H]3[C@@]4(C)CC[C@H](O)[C@@](C)(CO)[C@@H]4CC[C@@]3(C)[C@]1(C)CC2)c1ccccc1 (some centres undefined) as the compound, how does the inhibition at 1000 µM read?
Its inhibition at 1000 µM is 60%.

Which inhibition at 1000 µM does the source give for CC1(C)CC[C@]2(C(=O)OCc3cn(Cc4ccccc4F)nn3)CC[C@]3(C)C(=CC[C@@H]4[C@@]5(C)CC[C@H](O)[C@@](C)(CO)[C@@H]5CC[C@]43C)[C@@H]2C1 here?
Its inhibition at 1000 µM is 48.3%.

CC1(C)CC[C@]2(C(=O)OCc3ccccc3F)CC[C@]3(C)C(=CC[C@@H]4[C@@]5(C)CC[C@H](O)[C@@](C)(CO)[C@@H]5CC[C@]43C)[C@@H]2C1 was tested. Which inhibition at 1000 µM did it give?
The inhibition at 1000 µM was 26%.

Which inhibition at 1000 µM does the source give for CC1(C)CC[C@]2(C(=O)OCc3cn(Cc4ccccc4Br)nn3)CC[C@]3(C)C(=CC[C@@H]4[C@@]5(C)CC[C@H](O)[C@@](C)(CO)[C@@H]5CC[C@]43C)[C@@H]2C1 here?
Its inhibition at 1000 µM is 34.6%.

Which inhibition at 1000 µM does the source give for CC1(C)CC[C@]2(C(=O)OCc3ccc([N+](=O)[O-])cc3)CC[C@]3(C)C(=CC[C@@H]4[C@@]5(C)CC[C@H](O)[C@@](C)(CO)[C@@H]5CC[C@]43C)[C@@H]2C1 here?
The inhibition at 1000 µM was 28%.

With CC1(C)CC[C@]2(C(=O)OCc3ccc(F)cc3F)CC[C@]3(C)C(=CC[C@@H]4[C@@]5(C)CC[C@H](O)[C@@](C)(CO)[C@@H]5CC[C@]43C)[C@@H]2C1 as the compound, how does the inhibition at 1000 µM read?
The inhibition at 1000 µM was 16%.

Which inhibition at 1000 µM does the source give for CC1(C)CC[C@]2(C(=O)NCc3cn(Cc4c(F)cccc4F)nn3)CC[C@]3(C)C(=CC[C@@H]4[C@@]5(C)CC[C@H](O)[C@@](C)(CO)[C@@H]5CC[C@]43C)[C@@H]2C1 here?
Its inhibition at 1000 µM is 45%.

Which inhibition at 1000 µM does the source give for CC1(C)CC[C@]2(C(=O)NCc3cn(Cc4ccc(F)cc4F)nn3)CC[C@]3(C)C(=CC[C@@H]4[C@@]5(C)CC[C@H](O)[C@@](C)(CO)[C@@H]5CC[C@]43C)[C@@H]2C1 here?
The inhibition at 1000 µM was 41.8%.

Which inhibition at 1000 µM does the source give for CC1(C)CC[C@]2(C(=O)OCc3ccccc3Br)CC[C@]3(C)C(=CC[C@@H]4[C@@]5(C)CC[C@H](O)[C@@](C)(CO)[C@@H]5CC[C@]43C)[C@@H]2C1 here?
The inhibition at 1000 µM was 40%.

CC1(C)CC[C@]2(C(=O)OCc3cccc(Br)c3)CC[C@]3(C)C(=CC[C@@H]4[C@@]5(C)CC[C@H](O)[C@@](C)(CO)[C@@H]5CC[C@]43C)[C@@H]2C1 was tested. Which inhibition at 1000 µM did it give?
Its inhibition at 1000 µM is 20%.
